Measurements taken from patent US20180141991A1, “METHODS AND POLYPEPTIDES FOR MODULATION OF IMMUNORESPONSE” (Mackay Medical Foundation The Presbyterian Church In Taiwan …, priority 2015, published 2018).

How the values were obtained:
HLA-DR on monocytes = assay: Surface expression of HLA-DR on primed monocytes, flow cytometry; format: cell-based, human; details: polypeptide 10 μg/ml, 48 hours of incubation (FIG. 4)
Experimental: (§1) (A) Monocytes were incubated with rsTLT-1 (10 μg/mL) for 3 days. At the indicated time point, the cells were harvested and the HLA-DR and PD-L1 molecules were analyzed using flow cytometry. […] (B) Monocytes were cultured with different concentrations of rsTLT-1 for 2 days. The cells were then harvested and the HLA-DR and PD-L1 molecules were analyzed using flow cytometry. Surface molecule expression is presented as the mean fluorescence intensity (MFI) relative to each day that the cells were treated with the control medium (dashed line). Values are presented as mean±SEM from 3 independent experiments.
Monocytes were cultured with 10 μg/ml TLT-1 15-63 polypeptide and 10 μg/ml rsTLT-1 for 2 days. The cells were then harvested and the HLA-DR molecules were analyzed using flow cytometry. Surface molecule expression is presented as the MFI relative to each day that the cells were treated with the medium control (dashed line).
(§2) White blood cell concentrates from healthy volunteers were obtained from the Taiwan Blood Service Foundation (Taipei, Taiwan). Written informed consent was obtained for participation in the study, which was approved by the Institutional Review Board of the MacKay Memorial Hospital. Human monocytes were isolated as previously described. In brief, peripheral blood mononuclear cells (PBMCs) were isolated using Ficoll-Paque Plus (GE Healthcare) gradient centrifugation. […]

PD-L1 on monocytes = assay: Surface expression of PD-L1 on primed monocytes, flow cytometry; format: cell-based, human; details: polypeptide 10 μg/mL, 24 hours, MFI relative to medium control (FIG. 3B)
Experimental: as §1
(A) depicts structural characteristics of extracellular domain of TLT-1 and designed TLT-1 polypeptides. […] The cells were then harvested and the PD-L1 molecules were analyzed using flow cytometry. Surface molecule expression is presented as the MFI relative to each day that the cells were treated with the medium control (dashed line).
as §2, with “described.” for “described. In brief, peripheral blood mononuclear cells (PBMCs) were isolated using Ficoll-Paque Plus (GE Healthcare) gradient centrifugation.”

Substance	HLA-DR surface expression on monocytes (HLA-DR on monocytes)	PD-L1 surface expression on monocytes (PD-L1 on monocytes)
TLT-1 15-63: GQGIVGSLPEVLQAPVGSSILVQCHYRLQDVKAQKVWCRFLPEGCQPLV (SEQ ID NO: 7; same sequence as SEQ ID NO: 2) (Polypeptide name TLT-1 15-63)	decreased	significantly increased
TLT-1 34-63: ILVQCHYRLQDVKAQKVWCRFLPEGCQPLV (SEQ ID NO: 9; same sequence as SEQ ID NO: 1) (Polypeptide name TLT-1 34-63)		induced PD-L1 expression
